Results as given in US7312356B2, “Medicament” (Cyclacel Limited, priority 2001, dated 2007).

Compound: CC(=O)OC[C@@]1(C(=O)O)CC[C@]2(C)C(CCC3[C@@]4(C)CC[C@H](OC(C)=O)C(C)(C)C4CC[C@]32C)C1=O (stereo partly drawn) [(7), 3β,28-Diacetoxy-18-oxo-19,20,21,29,30-pentanorlupan-22-oic Acid]
- melting point: 142 to 144 °C
